Reference: publication PMC11537224 (ACS Infectious Diseases, 2024)
Like-named read-outs stand apart in the source and are kept apart here.

What was measured:
[1] = target: TbTS (Trypanosoma brucei brucei, UniProt Q27783); assay: TbDHFR-TS inhibition assay versus the TS domain; type: biochemical
[2] = target: hTS (Homo sapiens, UniProt P04818); assay: hTS inhibition assay; type: biochemical
[3] = tested on: T. brucei bloodstream forms; assay: Activity toward T. brucei bloodstream forms; type: cell-based, T. brucei brucei Lister 427; settings: for EC50: Trypanosoma brucei, 72 h
[4] = tested on: L. infantum promastigotes; assay: L. infantum promastigotes viability assay; type: cell-based, L. infantum MHOM/TN/80/IPT1; settings: Leishmania infantum, 72 h, read-out: L. infantum EC50 (μM)
[5] = target: TbDHFR (Trypanosoma brucei brucei, UniProt Q27783); assay: biochemical
Sequence of TbDHFR (Q27783 whole entry): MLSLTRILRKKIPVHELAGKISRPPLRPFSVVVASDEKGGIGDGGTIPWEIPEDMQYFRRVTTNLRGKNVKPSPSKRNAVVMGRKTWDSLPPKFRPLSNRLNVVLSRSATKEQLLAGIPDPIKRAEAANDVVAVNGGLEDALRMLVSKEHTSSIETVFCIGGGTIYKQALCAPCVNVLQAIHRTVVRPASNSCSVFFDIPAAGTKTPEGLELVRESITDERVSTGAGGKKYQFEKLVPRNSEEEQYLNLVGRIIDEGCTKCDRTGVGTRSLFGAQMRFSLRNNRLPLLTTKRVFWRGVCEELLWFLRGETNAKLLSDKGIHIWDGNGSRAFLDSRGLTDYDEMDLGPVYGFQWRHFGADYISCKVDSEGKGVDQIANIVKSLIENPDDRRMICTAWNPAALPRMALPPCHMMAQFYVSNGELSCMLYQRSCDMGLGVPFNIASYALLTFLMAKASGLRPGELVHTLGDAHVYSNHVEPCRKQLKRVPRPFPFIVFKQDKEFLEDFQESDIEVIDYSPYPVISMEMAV

[6] = target: T1, hDHFR (Homo sapiens, UniProt P00374); assay: biochemical
T1 sequence (P00374 1-187): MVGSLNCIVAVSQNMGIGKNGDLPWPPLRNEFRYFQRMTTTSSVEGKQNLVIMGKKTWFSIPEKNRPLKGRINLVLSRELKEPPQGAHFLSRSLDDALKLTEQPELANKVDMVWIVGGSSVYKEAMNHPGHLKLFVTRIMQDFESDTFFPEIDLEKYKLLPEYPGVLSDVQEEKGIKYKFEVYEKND

[7] = target: T2, TbPTR1 (Trypanosoma brucei brucei, UniProt O76290); assay: TbPTR1 inhibition assay
T2 sequence (O76290 1-268): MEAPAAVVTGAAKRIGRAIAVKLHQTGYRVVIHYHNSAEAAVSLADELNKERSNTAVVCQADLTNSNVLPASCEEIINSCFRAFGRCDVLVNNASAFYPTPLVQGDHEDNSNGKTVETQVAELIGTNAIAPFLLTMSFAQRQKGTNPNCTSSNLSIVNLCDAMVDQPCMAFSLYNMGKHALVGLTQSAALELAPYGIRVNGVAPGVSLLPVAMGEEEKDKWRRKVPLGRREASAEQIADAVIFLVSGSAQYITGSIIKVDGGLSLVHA

[8] = target: LmDHFR (Leishmania major, UniProt P07382); assay: LmDHFR inhibition assay; type: biochemical, L. major
Sequence of LmDHFR (P07382 whole entry): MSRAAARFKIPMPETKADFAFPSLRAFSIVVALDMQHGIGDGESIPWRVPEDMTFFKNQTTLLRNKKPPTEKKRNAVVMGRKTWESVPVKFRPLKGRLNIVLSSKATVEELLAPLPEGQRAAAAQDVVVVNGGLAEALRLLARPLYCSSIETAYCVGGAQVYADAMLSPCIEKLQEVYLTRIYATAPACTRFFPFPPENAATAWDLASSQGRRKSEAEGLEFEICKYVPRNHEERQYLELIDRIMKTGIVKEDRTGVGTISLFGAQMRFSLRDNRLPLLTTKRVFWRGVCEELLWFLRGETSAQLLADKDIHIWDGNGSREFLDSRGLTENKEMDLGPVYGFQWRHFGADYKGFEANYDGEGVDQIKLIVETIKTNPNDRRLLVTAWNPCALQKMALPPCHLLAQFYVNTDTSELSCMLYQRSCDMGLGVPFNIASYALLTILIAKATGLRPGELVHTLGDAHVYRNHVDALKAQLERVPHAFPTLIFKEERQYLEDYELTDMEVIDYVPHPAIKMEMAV

[9] = target: TcDHFR (Trypanosoma cruzi, UniProt Q27793); assay: TcDHFR inhibition assay; type: biochemical, T. cruzi
Sequence of TcDHFR (Q27793 whole entry): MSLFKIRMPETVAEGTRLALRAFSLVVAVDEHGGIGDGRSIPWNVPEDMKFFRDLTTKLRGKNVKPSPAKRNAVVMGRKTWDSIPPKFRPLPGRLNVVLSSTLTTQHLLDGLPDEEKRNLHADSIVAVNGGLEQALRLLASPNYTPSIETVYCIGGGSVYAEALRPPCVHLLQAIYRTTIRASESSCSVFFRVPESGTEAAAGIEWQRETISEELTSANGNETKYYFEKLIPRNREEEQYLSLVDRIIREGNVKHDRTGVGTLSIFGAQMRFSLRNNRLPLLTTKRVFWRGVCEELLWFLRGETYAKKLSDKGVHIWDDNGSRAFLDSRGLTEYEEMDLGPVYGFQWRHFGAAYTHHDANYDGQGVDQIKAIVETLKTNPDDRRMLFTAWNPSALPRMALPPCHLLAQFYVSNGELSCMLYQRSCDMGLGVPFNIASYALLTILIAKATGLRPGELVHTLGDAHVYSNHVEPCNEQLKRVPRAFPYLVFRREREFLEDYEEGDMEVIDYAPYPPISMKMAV

[10] = tested on: T. brucei; settings: read-out: T. brucei EC50; cited from earlier work
[11] = tested on: T. brucei; settings: read-out: growth of parasites EC50; mean value from four diverse culture media; cited from earlier work
[12] = read-out: T. brucei EC50 (μM) folate deficiency

Sequence of TbTS (Q27783 whole entry, the tested form may be a part): as the sequence (Q27783 whole entry) above
Sequence of hTS (P04818 whole entry): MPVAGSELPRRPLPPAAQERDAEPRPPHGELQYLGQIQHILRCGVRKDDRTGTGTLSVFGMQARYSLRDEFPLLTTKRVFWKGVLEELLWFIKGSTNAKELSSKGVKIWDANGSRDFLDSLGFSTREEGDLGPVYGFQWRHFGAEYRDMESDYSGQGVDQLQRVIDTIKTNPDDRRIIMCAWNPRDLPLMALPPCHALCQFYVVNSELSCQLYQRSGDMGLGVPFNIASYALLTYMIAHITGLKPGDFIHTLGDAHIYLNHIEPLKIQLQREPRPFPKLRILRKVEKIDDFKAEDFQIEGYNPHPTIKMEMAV

| Structure (SMILES) | Ki [1] | Ki [2] | EC50 ([3]; read-out: T. brucei EC50 (μM)) | EC50 [3, 12] | EC50 [4] | Ki [5] | Ki [6] | Ki [7] | Ki [8] | Ki [9] | drop-off in potency TcDHFR versus TbDHFR ([9]; Ki TcDHFR versus Ki TbDHFR) | EC50 [10] | EC50 enhancement in folate deficiency medium versus standard medium ([3]; T. brucei, 23.3 μM to 5.4 nM) | EC50 [11] |
| --- | --- | --- | --- | --- | --- | --- | --- | --- | --- | --- | --- | --- | --- | --- |
| N=C(N)Nc1nc2ccccc2[nH]1 [2a, 2-Guanidinobenzimidazole] | 23.6 µM | > 500 µM | > 20 µM | > 20 µM | > 20 µM | 0.029 µM | 2.21 µM | 13.3 µM |  |  |  |  |  |  |
| N=C(N)Nc1nc2cc(Cl)c(Cl)cc2[nH]1 [2c, 5,6-Dichloro-2-guanidinobenzimidazole] | 50.3 µM | > 500 µM | 7.8 µM | 6.52 µM | 22.5 µM | 0.66 µM | 1.51 µM | 3.23 µM | 1.58 µM |  |  |  |  |  |
| N=C(N)Nc1nc2cc(Cl)cc(Cl)c2[nH]1 [2d, 4,6-Dichloro-2-guanidinobenzimidazole] | 20.3 µM | > 500 µM | 2.91 µM | 5.97 µM | 6.62 µM | 0.113 µM | 4.36 µM | 4.94 µM |  |  |  |  |  |  |
| Cc1cc2nc(NC(=N)N)[nH]c2cc1C [2g, 5,6-Dimethyl-2-guanidinobenzimidazole] | 18.2 µM | > 500 µM | 14.5 µM | 13.8 µM | > 20 µM | 0.009 µM | 3.55 µM | 54 µM | 1.04 µM | 0.6 µM | 67 fold |  |  |  |
| CC1(C)N=C(N)N=C(N)N1c1ccc(Cl)cc1 [Cyc, cycloguanil, reference compound] |  |  | > 80 µM | 27.2 µM | > 80 µM |  |  | 4.16 µM |  |  |  | > 25 µM |  |  |
| CCCCCCCCCCCCCCCCOP(=O)([O-])OCC[N+](C)(C)C [MLF, miltefosine, reference compound] |  |  |  |  | 10.9 µM |  |  |  |  |  |  |  |  |  |
| CN(Cc1cnc2nc(N)nc(N)c2n1)c1ccc(C(=O)N[C@@H](CCC(=O)O)C(=O)O)cc1 [MTX, methotrexate, reference compound] |  |  | 23.3 µM | 0.0054 µM |  |  |  |  |  |  |  |  | 4300 fold |  |
| N=C(N)c1ccc(OCCCCCOc2ccc(C(=N)N)cc2)cc1 [PENT, pentamidine, reference compound] |  |  | 0.0041 µM |  |  |  |  |  |  |  |  |  |  |  |
| CCc1nc(N)nc(N)c1-c1ccc(Cl)cc1 [Pyr, pyrimethamine, reference compound] |  | 11.8 µM | 17.3 µM | 2.08 µM | 99.2 µM |  |  |  |  |  |  |  |  |  |
| Cc1ccc2nc(N)[nH]c(=O)c2c1Sc1ccncc1 [nolatrexed] |  |  |  |  |  |  |  |  |  |  |  |  |  | ~32 µM |
